Test results as given in patent US20060069132A1, “Azolecarboxamide herbicides” (priority 2004, published 2006).

Test system: wheat cv. Retical
Test: Test H safening on wheat by naphthalic anhydride seed treatment, pre-/postemergence
Format: in vivo, Triticum aestivum
Parameters: key to Response of wheat, Without naphthalic anhydride seed treatment: 0 = no effect, 100 = complete plant death, vs untreated control
Description: This test evaluated the safening of compounds of the invention on wheat (Triticum aestivumL.) cv. ‘Retical’ by seed treatment with naphthalic anhydride. Some of the wheat seed was treated with napthalic anhydride as a 1% by weight seed dressing. The wheat seed were planted in pots containing pasteurized Sassafras sandy loam soil. For postemergence testing the plants were grown 8 days to the 2-leaf stage at time of treatment. Preemergence treatments were applied the same day that the seeds were planted. Treatments were applied by spraying the test compounds formulated in a non-phytotoxic solvent mixture, using a flat fan nozzle and a spray volume of 280 L/ha. The preemergence treatments were triply replicated and the results subsequently averaged. The pots were placed on a growth chamber bench using a complete randomized block design for the preemergence test except for the first replicate, which was unrandomized. The plants were grown in the growth chamber and watered as needed with a dilute nutrient solution containing 200 ppm of N. Illumination was provided by fluorescent lamps giving 200-300 μE/m^2/S of photosynthetically active radiation over a 14-hour photoperiod. The temperature was maintained at 23±2° C. during the day and 17±2° C. at night. The effects of the treatments were rated 25 days after preemergence treatment and 14 days after postemergence treatment. The plant response was visually rated in comparison to untreated controls using a scale of 0 to 100, with 0 representing no effect and 100 representing complete plant death. The results for the compounds tested preemergence are listed in Table H1, and the results for the compounds tested postemergence are listed in Table H2.

## CCNC(=O)c1ccc(F)c(NC(=O)c2cc(C(C)(C)C)nn2CC)c1 [Compound 2, 3-(1,1-dimethylethyl)-1-ethyl-N-[5-[(ethylamino)carbonyl]-2-fluorophenyl]-1H-pyrazole-5-carboxamide]
postemergence, 62 g a.i./ha
  Response of wheat, With 1% naphthalic anhydride seed treatment: 30
  Response of wheat, Without naphthalic anhydride seed treatment: 60
postemergence, 125 g a.i./ha
  Response of wheat, With 1% naphthalic anhydride seed treatment: 65
  Response of wheat, Without naphthalic anhydride seed treatment: 75
preemergence, 62 g a.i./ha
  Response of wheat, With 1% naphthalic anhydride seed treatment: 50
  Response of wheat, Without naphthalic anhydride seed treatment: 62
preemergence, 125 g a.i./ha
  Response of wheat, With 1% naphthalic anhydride seed treatment: 72
  Response of wheat, Without naphthalic anhydride seed treatment: 82
